The text below walks through data of US20080241081A1, “AMIDE COMPOUND OR SALT THEREOF, AND BIOFILM REMOVER CONTAINING THE SAME” (priority 2006, published 2008).

Test [1] deals with autoinducer. The settings on record: as taught by Patent Document 1 (JP 2006-512290); cited from earlier work.
Test [2] has as its system biofilm formed by Pseudomonas aeruginosa (gfp expression PAO1-strain). Briefly: Evaluation test for removing biofilms formed by Pseudomonas aeruginosa (flow cell system, fluorescence confocal microscope). Type of test: cell-based. Conditions: test liquid 100 μM compound; for state of deposited biofilm observed over time: flow 200 μL per minute, observed after 3, 4, 5, 6, 7 and 10 days, compared with DMSO control test liquid; for biofilm removal effect (conclusion): flow cell system, up to 10 days. The method, then: Each of the amide compounds (Compound 1a-1, 1a-2, 1b-1 and 1c-1) produced in Production Examples 1 to 4 was evaluated for its biofilm removal effect, using the flow cell system shown in FIG. 1.
A culture medium bottle (1), a peristaltic pump (2), a glass cell (4) and a waste fluid bottle (5) are connected via a silicon tube (6) so that a culture medium (9) is supplied to the glass cell from the culture medium bottle (1) using the peristaltic pump (2). The system includes an air removal section (3) between the peristaltic pump (2) and a turncock (7a), for removing the entrained air. All tools in the flow cell system are sterilized using gamma-rays or an autoclave.
As specifically described later, the effect for removing biofilms is examined in the following manner. Bacteria are cultured in a glass cell (4) to grow a biofilm on the inner wall of the cell, and a test liquid containing one of the amide compounds is applied to the biofilm. Then the condition of the biofilm is observed to evaluate the biofilm-removing effect of the compound using a fluorescence confocal microscope (Leica TCS SP2: product of Leica).
The bacteria was prepared by inserting a pTdk-LVAgfp plasmid into a Pseudomonas aeruginosa PAO1-strain using the electroportion method so that the Pseudomonas aeruginosa PAO1-strain is transformed to express Green Fluorescent Protein (hereinafter referred to as “gfp expression PAO1-strain”) (see Teresa R. et al., Applied and Environmental Microbiology, April 2001, p. 1865-1873).
A 30 mM glucose-containing FAB culture medium was used for preincubation, and a 0.3 mM glucose-containing FAB culture medium was used for main cultivation.
The glucose-containing FAB culture medium was prepared by adding 200 μg/mL of carbenicillin to an aqueous solution containing 30 mM glucose or 0.3 mM glucose, 15 mM ammonium sulfate, 33.7 mM disodium hydrogenphosphate, 22.1 mM dipotassium hydrogenphosphate, 51.7 mM sodium chloride, 0.47 mM magnesium chloride, 0.08 mM calcium chloride and the following 0.1% trace metal solution.
An aqueous solution containing 1.16 mM calcium sulfate dihydrate, 0.72 mM iron sulfate heptahydrate, 0.08 mM manganous sulfate monohydrate, 0.08 mM copper sulfate pentahydrate, 0.07 mM zinc sulfate heptahydrate, 0.04 mM cobalt sulfate heptahydrate, 0.04 mM […], and 0.08 mM boric acid.
A gfp expression PAO1-strain was inoculated in a 30 mM glucose-containing FAB culture medium, and was subjected to shake culture at 37° C. in an isothermal tank overnight. The obtained overnight culture liquid was diluted by a 30 mM glucose-containing FAB culture medium to OD590=0.1. […]

Test [3] relates to biofilm formed by Porphyromonas gingivalis 381-strain. Nature of the test: Evaluation test for removing biofilms formed by periodontitis pathogenic bacteria (flow cell system, optical microscope). Type of test: cell-based. The settings on record: same experiment as Experiment Example 1, Porphyromonas gingivalis 381-strain, 10 days. The method, then: The same experiment as in Experiment Example 1 was conducted except that periodontitis pathogenic bacteria Porphyromonas gingivalis 381-strain (clinical bacteria) was used in place of Pseudomonas aeruginosa PAO1-strain. […] The gradual exfoliation of the deposited biofilm from the cell wall, and the flowing flakes of biofilm exfoliation in the cell were also visually observed.

For the compound `CCCCCCCCCC(=O)CC(=O)NN1CCCCC1` [drawing 7], in test [1], the autoinducer agonist activity entry is listed as “exhibits autoinducer agonist activity”.

Turning to `CCCCCCCCCC(=O)CC(=O)Nc1ccccc1O` [Comparative Compound 1, reference compound], the “state of deposited biofilm observed over time” value in test [2] is given as “a similar biofilm formation to that of the control test using the control test liquid was observed”.

`CCCCCCCCCC(=O)CC(=O)NN1CCCCC1` [Compound 1a-2, N-(piperidine-1-yl)-3-oxododecanoyl amide]: in test [3], the “state of biofilm (removal)” value is on record as “nearly the entire biofilm was removed in 10 days”. Moreover, in test [2], the “state of deposited biofilm observed over time” value is listed as “gradual disappearance of the deposited biofilm with time was observed” and the “biofilm removal effect (conclusion)” value was “effective for removing deposited biofilms”.

`CCCCCCCCCC(=O)CC(=O)NN1CCCC1` [Compound 1a-1, N-(pyrrolidin-1-yl)-3-oxododecanoyl amide]: the “state of biofilm (removal)” value in test [3] is “nearly the entire biofilm was removed in 10 days”. Besides, in test [2], the “biofilm removal effect (conclusion)” value is “effective for removing deposited biofilms”.
